“Also recorded” adds a separate entry of the source.
Tested on: ras-transformed C3H cells (C3H10T1/2 derived tumors)
Assay: Tumor growth in C3H mice bearing subcutaneous ras-transformed C3H cell tumors, treated with reovirus and/or cisplatin
Format: in vivo
Details: syngeneic tumors measured daily from Day 0, cisplatin 2.5 mg/kg tail vein Days 10, 16, 22, reovirus 5×10^8 PFUs i.v. Days 0, 6, 12, 18
Text: C3H mice (Charles River) were implanted subcutaneously with 1.0×10^6 […] ras-transformed C3H cells (a gift of D. Edwards, University of Calgary) and allowed to develop tumors. The Dearing strain of reovirus serotype 3 used in these studies was propagated in suspension cultures of L cells and purified according to Smith (Smith et al., 1969) with the exception that β-mercaptoethanol (β-ME) was omitted from the extraction buffer. The particle/PFU ratio for purified reovirus was typically 100/1.
The tumor bearing mice were treated with 4 different regimes as described below:
For animals which received reovirus (Series 3-4), 5×10^8 PFUs of reovirus (in 20 μl of saline) were injected intravenously via the tail vein of the animals on Days 0, 6, 12, and 18. […] Cisplatin was injected into the tail vein on Days 10, 16 and 22 at a dose of 2.5 mg per kilogram of body weight. The tumors were measured daily from Day 0 to assess growth rate of the tumors.

SMILES: N.N.[Cl][Pt][Cl] [cisplatin]
- effect on growth rate of the tumors: essentially no inhibitory effects; also recorded: no effect on the tumor; also recorded: growth rate that was essentially the same as untreated tumors

From patent US8658158B2, “Sensitization of chemotherapeutic agent resistant neoplastic cells with a virus” (Oncolytics Biotech Inc., priority 2001, dated 2014)
